This is an account of results in patent publication US6881741B2 (ViroChem Pharma Inc., priority 2001, dated 2005).

In the experiment the target is recombinant HCV NS5B (HCV RNA-dependent RNA polymerase) (Hepatitis C virus genotype 1b, UniProt P26663). Description: biochemical. To be noted: related polymerase activity (Example 27 list); read-out: IC50.
recombinant HCV NS5B (HCV RNA-dependent RNA polymerase), sequence (P26663 2420-3010 limits assumed): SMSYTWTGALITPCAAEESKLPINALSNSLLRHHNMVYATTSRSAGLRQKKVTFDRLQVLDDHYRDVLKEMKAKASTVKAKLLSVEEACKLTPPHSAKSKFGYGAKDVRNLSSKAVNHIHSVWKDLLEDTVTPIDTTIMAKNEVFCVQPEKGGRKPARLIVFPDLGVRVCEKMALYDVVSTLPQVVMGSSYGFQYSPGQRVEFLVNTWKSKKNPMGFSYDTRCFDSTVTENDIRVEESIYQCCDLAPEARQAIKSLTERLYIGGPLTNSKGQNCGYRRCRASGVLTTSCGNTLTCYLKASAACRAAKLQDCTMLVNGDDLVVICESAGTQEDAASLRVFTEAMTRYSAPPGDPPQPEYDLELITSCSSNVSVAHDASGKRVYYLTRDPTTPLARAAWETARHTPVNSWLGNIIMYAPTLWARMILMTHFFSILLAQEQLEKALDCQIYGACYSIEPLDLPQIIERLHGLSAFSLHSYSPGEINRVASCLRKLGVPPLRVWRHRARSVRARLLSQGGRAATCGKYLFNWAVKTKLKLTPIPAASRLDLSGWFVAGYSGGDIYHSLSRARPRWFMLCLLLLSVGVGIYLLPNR

As to `CN(C(=O)c1cc2ccccc2s1)c1cc(-c2ccccc2)sc1C(=O)O` [Compound 251, 3-[(BENZO[B]THIOPHENE-2-CARBONYL)-METHYL-AMINO]-5-PHENYL-THIOPHENE-2-CARBOXYLIC ACID], the IC50 is 5 to 20 µM. `CN(C(=O)c1ccc2ccccc2c1)c1cc(-c2ccccc2)sc1C(=O)O` [Compound 252, 3-[METHYL-(NAPHTHALENE-2-CARBONYL)-AMINO]-5-PHENYL-THIOPHENE-2-CARBOXYLIC ACID]: the IC50 was in the range of 5 to 20 µM. On to `CN(C(=O)c1ccc(Cl)c(Cl)c1)c1cc(-c2ccccc2)sc1C(=O)O` [Compound 253, 3-[(3,4-DICHLORO-BENZOYL)-METHYL-AMINO]-5-PHENYL-THIOPHENE-2-CARBOXYLIC ACID], for which the IC50 lay in the range of 5 to 20 µM. Regarding `CN(C(=O)c1cc(Cl)cc(Cl)c1)c1cc(-c2ccccc2)sc1C(=O)O` [Compound 254, 3-[(3,5-DICHLORO-BENZOYL)-METHYL-AMINO]-5-PHENYL-THIOPHENE-2-CARBOXYLIC ACID], the concentration for half-maximal inhibition (IC50) lay within 5 to 20 µM. As to `Cc1cc(C(=O)N(C)c2cc(-c3ccccc3)sc2C(=O)O)ccc1Br` [Compound 255, 3-[(4-BROMO-3-METHYL-BENZOYL)-METHYL-AMINO]-5-PHENYL-THIOPHENE-2-CARBOXYLIC ACID], the half-maximal inhibitory concentration (IC50) was < 5 µM. As for `CN(C(=O)c1sc2ccccc2c1Cl)c1cc(-c2ccccc2)sc1C(=O)O` [Compound 256, 3-[(3-CHLORO-BENZO[B]THIOPHENE-2-CARBONYL)-METHYL-AMINO]-5-PHENYL-THIOPHENE-2-CARBOXYLIC ACID], the IC50 was 5 to 20 µM.

For `Cc1ccc(C(=O)N(C)c2cc(-c3ccccc3)sc2C(=O)O)cc1[N+](=O)[O-]` [Compound 257, 3-[METHYL-(4-METHYL-3-NITRO-BENZOYL)-AMINO]-5-PHENYL-THIOPHENE-2-CARBOXYLIC ACID], the IC50 was 5 to 20 µM. Take `Cc1ccc(S(=O)(=O)Nc2cc(-c3ccc(C(N)=O)cc3)sc2C(=O)O)cc1` [Compound 259, 5-(4-CARBAMOYL-PHENYL)-3-(TOLUENE-4-SULFONYLAMINO)-THIOPHENE-2-CARBOXYLIC ACID]: the IC50 is < 5 µM. Turning to `Cc1ccccc1S(=O)(=O)Nc1cc(-c2ccc3[nH]ccc3c2)sc1C(=O)O` [Compound 260, 5-(1H-INDOL-5-YL)-3-(TOLUENE-2-SULFONYLAMINO)-THIOPHENE-2-CARBOXYLIC ACID], the IC50 lay within 5 to 20 µM. As for `CCC(C)N(C(=O)c1ccc(Cl)cc1Cl)c1cc(-c2ccccc2)sc1C(=O)O` (stereo not drawn) [Compound 261, 3-[SEC-BUTYL-(2,4-DICHLORO-BENZOYL)-AMINO]-5-PHENYL-THIOPHENE-2-CARBOXYLIC ACID], the IC50 was < 5 µM. For the molecule `Cc1ccc(C(=O)N(c2cc(-c3ccccc3)sc2C(=O)O)C(C)C)c(C)c1` [Compound 262, 3-[(2,4-DIMETHYL-BENZOYL)-ISOPROPYL-AMINO]-5-PHENYL-THIOPHENE-2-CARBOXYLIC ACID], the IC50 is < 5 µM. As to `CC(c1ccccc1)N(C(=O)c1ccc(Cl)cc1Cl)c1cc(-c2ccccc2)sc1C(=O)O` (stereo not drawn) [Compound 264, 3-[(2,4-DICHLORO-BENZOYL)-(1-PHENYL-ETHYL)-AMINO]-5-PHENYL-THIOPHENE-2-CARBOXYLIC ACID], the IC50 was < 5 µM. With `NC(=O)c1ccc(-c2cc(NS(=O)(=O)c3ccc(Cl)cc3)c(C(=O)O)s2)cc1` [Compound 265, 5-(4-CARBAMOYL-PHENYL)-3-(4-CHLORO-BENZENESULFONYLAMINO)-THIOPHENE-2-CARBOXYLIC ACID], the IC50 is < 5 µM. Then `Cc1ccc(C(=O)N(C)c2cc(-c3ccccc3F)sc2C(=O)O)cc1` [Compound 266, 5-(2-FLUORO-PHENYL)-3-[METHYL-(4-METHYL-BENZOYL)-AMINO]-THIOPHENE-2-CARBOXYLIC ACID], with < 5 µM. Consider `Cc1ccc(C(=O)N(C)c2cc(-c3ccccc3C)sc2C(=O)O)cc1` [Compound 267, 3-[METHYL-(4-METHYL-BENZOYL)-AMINO]-5-O-TOLYL-THIOPHENE-2-CARBOXYLIC ACID], for which the IC50 is < 5 µM.

Consider `Cc1ccc(C(=O)N(C)c2cc(-c3cccc(C)c3)sc2C(=O)O)cc1` [Compound 268, 3-[METHYL-(4-METHYL-BENZOYL)-AMINO]-5-M-TOLYL-THIOPHENE-2-CARBOXYLIC ACID], for which the IC50 is < 5 µM.

As to `Cc1ccc(C(=O)N(C)c2cc(-c3cccc(Cl)c3)sc2C(=O)O)cc1` [Compound 269, 5-(3-CHLORO-PHENYL)-3-[METHYL-(4-METHYL-BENZOYL)-AMINO]-THIOPHENE-2-CARBOXYLIC ACID], the IC50 was < 5 µM.

For `Cc1ccc(C(=O)N(C)c2cc(-c3ccc(F)c(F)c3)sc2C(=O)O)cc1` [Compound 270, 5-(3,4-DIFLUORO-PHENYL)-3-[METHYL-(4-METHYL-BENZOYL)-AMINO]-THIOPHENE-2-CARBOXYLIC ACID], the IC50 was < 5 µM. On to `Cc1ccc(C(=O)N(C)c2cc(-c3cccc(N)c3)sc2C(=O)O)cc1` [Compound 271, 5-(3-AMINO-PHENYL)-3-[METHYL-(4-METHYL-BENZOYL)-AMINO]-THIOPHENE-2-CARBOXYLIC ACID], for which the IC50 is 5 to 20 µM.

Regarding `CC(=O)c1cccc(-c2cc(N(C)C(=O)c3ccc(C)cc3)c(C(=O)O)s2)c1` [Compound 272, 5-(3-ACETYL-PHENYL)-3-[METHYL-(4-METHYL-BENZOYL)-AMINO]-THIOPHENE-2-CARBOXYLIC ACID], the IC50 lay in the range of 5 to 20 µM. On to `Cc1ccc(C(=O)N(C)c2cc(-c3cccc(O)c3)sc2C(=O)O)cc1` [Compound 273, 5-(3-HYDROXY-PHENYL)-3-[METHYL-(4-METHYL-BENZOYL)-AMINO]-THIOPHENE-2-CARBOXYLIC ACID], for which the IC50 is < 5 µM. For the molecule `Cc1ccc(C(=O)N(C)c2cc(-c3cccc(C(F)(F)F)c3)sc2C(=O)O)cc1` [Compound 274, 3-[METHYL-(4-METHYL-BENZOYL)-AMINO]-5-(3-TRIFLUOROMETHYL-PHENYL)-THIOPHENE-2-CARBOXYLIC ACID], the IC50 was < 5 µM. Then `Cc1ccc(C(=O)N(C)c2cc(-c3ccc(C(F)(F)F)cc3)sc2C(=O)O)cc1` [Compound 275, 3-[METHYL-(4-METHYL-BENZOYL)-AMINO]-5-(4-TRIFLUOROMETHYL-PHENYL)-THIOPHENE-2-CARBOXYLIC ACID], with < 5 µM; and `COc1ccc(C(=O)N(C)c2cc(-c3ccccc3)sc2C(=O)O)cc1OC` [Compound 276, 3-[(3,4-DIMETHOXY-BENZOYL)-METHYL-AMINO]-5-PHENYL-THIOPHENE-2-CARBOXYLIC ACID], with > 20 µM; and `CN(C(=O)c1ccc(C(F)(F)F)c(F)c1F)c1cc(-c2ccccc2)sc1C(=O)O` [Compound 278, 3-[(2,3-DIFLUORO-4-TRIFLUOROMETHYL-BENZOYL)-METHYL-AMINO]-5-PHENYL-THIOPHENE-2-CARBOXYLIC ACID], with 5 to 20 µM. `CN(C(=O)c1ccc(C(F)(F)F)c(F)c1)c1cc(-c2ccccc2)sc1C(=O)O` [Compound 279, 3-[(3-FLUORO-4-TRIFLUOROMETHYL-BENZOYL)-METHYL-AMINO]-5-PHENYL-THIOPHENE-2-CARBOXYLIC ACID]: the IC50 fell in the range of 5 to 20 µM. With `Cc1ccc(C(=O)N(C)c2cc(-c3ccccc3)sc2C(=O)O)c(F)c1F` [Compound 280, 3-[(2,3-DIFLUORO-4-METHYL-BENZOYL)-METHYL-AMINO]-5-PHENYL-THIOPHENE-2-CARBOXYLIC ACID], the IC50 is < 5 µM. Regarding `Cc1ccccc1S(=O)(=O)Nc1cc(-c2ccc(C(N)=O)cc2)sc1C(=O)O` [Compound 282, 5-(4-CARBAMOYL-PHENYL)-3-(TOLUENE-2-SULFONYLAMINO)-THIOPHENE-2-CARBOXYLIC ACID], the 50% inhibitory concentration (IC50) lay in the range of 5 to 20 µM.

Take `Cc1ccc(C(=O)N(c2cc(-c3ccc(F)cc3)sc2C(=O)O)C(C)C)cc1` [Compound 283, 5-(4-FLUORO-PHENYL)-3-[ISOPROPYL-(4-METHYL-BENZOYL)-AMINO]-THIOPHENE-2-CARBOXYLIC ACID]: the IC50 was < 5 µM. Take `CN(C(=O)c1ccc(Cl)cc1Br)c1cc(-c2ccccc2)sc1C(=O)O` [Compound 284, 3-[(2-BROMO-4-CHLORO-BENZOYL)-METHYL-AMINO]-5-PHENYL-THIOPHENE-2-CARBOXYLIC ACID]: the IC50 was < 5 µM.

Turning to `Cc1cccc(C)c1S(=O)(=O)Nc1cc(-c2ccccc2)sc1C(=O)O` [Compound 285, 3-(2,6-DIMETHYL-BENZENESULFONYLAMINO)-5-PHENYL-THIOPHENE-2-CARBOXYLIC ACID], the IC50 is < 5 µM.

Regarding `CC1CCC(C(=O)N(C)c2cc(-c3ccccc3)sc2C(=O)O)CC1` (stereo not drawn) [Compound 286, 3-[METHYL-(4-METHYL-CYCLOHEXANECARBONYL)-AMINO]-5-PHENYL THIOPHENE-2-CARBOXYLIC ACID], the IC50 is < 5 µM. On to `COC(=O)c1sc(-c2ccccc2)cc1N(C(=O)c1ccc(Cl)cc1Cl)C(C)C` [Compound 287, 3-[(2,4-DICHLORO-BENZOYL)-ISOPROPYL-AMINO]-5-PHENYL-THIOPHENE-2-CARBOXYLIC ACID METHYL ESTER], for which the IC50 fell in the range of 5 to 20 µM. With `Cc1ccc(S(=O)(=O)Nc2cc(-c3ccc(C#N)cc3)sc2C(=O)O)c(C)c1` [Compound 288, 5-(4-CYANO-PHENYL)-3-(2,4-DIMETHYL-BENZENESULFONYLAMINO)-THIOPHENE-2-CARBOXYLIC ACID] the figure was < 5 µM; with `N#Cc1ccc(-c2cc(NS(=O)(=O)c3ccc(Cl)cc3)c(C(=O)O)s2)cc1` [Compound 289, 3-(4-CHLORO-BENZENESULFONYLAMINO)-5-(4-CYANO-PHENYL)-THIOPHENE-2-CARBOXYLIC ACID], < 5 µM. For the molecule `Cc1ccc(S(=O)(=O)Nc2cc(-c3ccc(C#N)cc3)sc2C(=O)O)cc1` [Compound 290, 5-(4-CYANO-PHENYL)-3-(TOLUENE-4-SULFONYLAMINO)-THIOPHENE-2-CARBOXYLIC ACID], the IC50 fell in the range of 5 to 20 µM. Then `Cc1csc(C(=O)N(C)c2cc(-c3ccccc3)sc2C(=O)O)c1` [Compound 293, 3-[METHYL-(4-METHYL-THIOPHENE-2-CARBONYL)-AMINO]-5-PHENYL-THIOPHENE-2-CARBOXYLIC ACID], with 5 to 20 µM; and `CC(C)N(C(=O)c1ccc(Cl)cc1Cl)c1cc(-c2cccc(Cl)c2)sc1C(=O)O` [Compound 294, 5-(3-CHLORO-PHENYL)-3-[(2,4-DICHLORO-BENZOYL)-ISOPROPYL-AMINO]-THIOPHENE-2-CARBOXYLIC ACID], with < 5 µM; and `Cc1ccc(C(=O)N(C)c2cc(-c3ccccn3)sc2C(=O)O)cc1` [Compound 296, 3-[METHYL-(4-METHYL-BENZOYL)-AMINO]-5-PYRIDIN-2-YL-THIOPHENE-2-CARBOXYLIC ACID], with 5 to 20 µM.
